Results on 1 compound are retold here after patent US20260207576A1 (priority 2024, published 2026).

Molecules are shown by their SMILES.

In this assay the target is Stx2A1 (Escherichia phage 933W, UniProt P09385). The class given is biochemical, E. coli (STEC). Particulars: read-out: IC50 against Stx2A1.
Chain of Stx2A1 (P09385 23-272 limits assumed): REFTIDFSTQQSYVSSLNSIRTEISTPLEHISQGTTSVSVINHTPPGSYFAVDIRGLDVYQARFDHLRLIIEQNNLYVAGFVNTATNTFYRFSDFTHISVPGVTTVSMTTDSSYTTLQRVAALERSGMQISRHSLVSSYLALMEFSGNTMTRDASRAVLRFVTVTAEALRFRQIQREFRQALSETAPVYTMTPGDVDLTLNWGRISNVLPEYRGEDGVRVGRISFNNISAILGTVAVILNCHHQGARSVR

As usually defined, the IC50 is the concentration that inhibits the measured activity by half. For the compound `CC1(C)Cc2cc(C(=O)O)sc2-c2ccccc21` [RU-NT-206, 5,5-Dimethyl-4,5-dihydronaphtho[1,2-b]thiophene-2-carboxylic acid], the IC50 was found to be 83 ± 30 µM.
